Settings: Liquid, Vibrating tube method

CC(C)CC(C)C [2,4-dimethylpentane]
Settings | mass density [kg/m3]
283.15 K, 95 kPa | 681.7
283.15 K, 4961 kPa | 686.3
283.15 K, 9969 kPa | 690.9
283.15 K, 14980 kPa | 695.1
283.15 K, 19985 kPa | 699.1
283.15 K, 25039 kPa | 702.9
283.15 K, 30016 kPa | 706.5
283.15 K, 35089 kPa | 710
283.15 K, 40016 kPa | 713.3
283.15 K, 45012 kPa | 716.4
283.15 K, 49972 kPa | 719.5
283.15 K, 54980 kPa | 722.4
283.15 K, 59931 kPa | 725.3
283.15 K, 65047 kPa | 728.1
288.15 K, 127 kPa | 677.3
288.15 K, 4984 kPa | 682.2
288.15 K, 9987 kPa | 686.8
288.15 K, 14976 kPa | 691.2
288.15 K, 19996 kPa | 695.3
288.15 K, 24895 kPa | 699.2
288.15 K, 30002 kPa | 703
288.15 K, 34983 kPa | 706.5
288.15 K, 40000 kPa | 709.9
288.15 K, 44974 kPa | 713.1
288.15 K, 49950 kPa | 716.2
288.15 K, 55010 kPa | 719.3
288.15 K, 60065 kPa | 722.2
288.15 K, 64958 kPa | 725
293.15 K, 83 kPa | 672.8
293.15 K, 4982 kPa | 677.9
293.15 K, 9969 kPa | 682.7
293.15 K, 15059 kPa | 687.3
293.15 K, 19914 kPa | 691.5
293.15 K, 25056 kPa | 695.6
293.15 K, 29936 kPa | 699.3
293.15 K, 34976 kPa | 703
293.15 K, 39994 kPa | 706.4
293.15 K, 44992 kPa | 709.8
293.15 K, 50030 kPa | 713
293.15 K, 54953 kPa | 716
293.15 K, 59933 kPa | 719
293.15 K, 65045 kPa | 721.9
298.15 K, 92 kPa | 668.3
298.15 K, 4941 kPa | 673.6
298.15 K, 9982 kPa | 678.6
298.15 K, 14991 kPa | 683.3
298.15 K, 19963 kPa | 687.6
298.15 K, 25048 kPa | 691.8
298.15 K, 29972 kPa | 695.7
298.15 K, 34945 kPa | 699.4
298.15 K, 39958 kPa | 702.9
298.15 K, 45007 kPa | 706.4
298.15 K, 49963 kPa | 709.6
298.15 K, 55008 kPa | 712.8
298.15 K, 60003 kPa | 715.8
298.15 K, 65017 kPa | 718.8
303.15 K, 72 kPa | 663.8
303.15 K, 4969 kPa | 669.3
303.15 K, 9974 kPa | 674.5
303.15 K, 14963 kPa | 679.3
303.15 K, 19981 kPa | 683.9
303.15 K, 25047 kPa | 688.2
303.15 K, 29954 kPa | 692.1
303.15 K, 34987 kPa | 695.9
303.15 K, 39964 kPa | 699.6
303.15 K, 45006 kPa | 703.1
303.15 K, 49991 kPa | 706.4
303.15 K, 55060 kPa | 709.7
303.15 K, 59991 kPa | 712.8
303.15 K, 65054 kPa | 715.8
308.15 K, 100 kPa | 659.4
308.15 K, 4987 kPa | 665.1
308.15 K, 9965 kPa | 670.4
308.15 K, 15040 kPa | 675.5
308.15 K, 19960 kPa | 680.1
308.15 K, 24964 kPa | 684.4
308.15 K, 30076 kPa | 688.7
308.15 K, 34985 kPa | 692.5
308.15 K, 39972 kPa | 696.2
308.15 K, 44972 kPa | 699.8
308.15 K, 49955 kPa | 703.2
308.15 K, 54996 kPa | 706.5
308.15 K, 60063 kPa | 709.7
308.15 K, 65021 kPa | 712.7
313.15 K, 108 kPa | 654.9
313.15 K, 5004 kPa | 660.8
313.15 K, 10013 kPa | 666.4
313.15 K, 15049 kPa | 671.6
313.15 K, 19963 kPa | 676.3
313.15 K, 25062 kPa | 680.9
313.15 K, 29960 kPa | 685
313.15 K, 34942 kPa | 689
313.15 K, 40039 kPa | 692.9
313.15 K, 45017 kPa | 696.6
313.15 K, 50065 kPa | 700.1
313.15 K, 54977 kPa | 703.4
313.15 K, 59923 kPa | 706.6
313.15 K, 64996 kPa | 709.7
318.15 K, 110 kPa | 650.2
318.15 K, 5061 kPa | 656.5
318.15 K, 9957 kPa | 662.2
318.15 K, 15002 kPa | 667.6
318.15 K, 19980 kPa | 672.5
318.15 K, 25013 kPa | 677.1
318.15 K, 30045 kPa | 681.5
318.15 K, 34965 kPa | 685.6
318.15 K, 39938 kPa | 689.5
318.15 K, 44971 kPa | 693.2
318.15 K, 49989 kPa | 696.8
318.15 K, 55009 kPa | 700.2
318.15 K, 59952 kPa | 703.5
318.15 K, 65056 kPa | 706.7
323.15 K, 121 kPa | 645.6
323.15 K, 5001 kPa | 652.1
323.15 K, 10007 kPa | 658.1
323.15 K, 15037 kPa | 663.6
323.15 K, 19969 kPa | 668.7
323.15 K, 25018 kPa | 673.5
323.15 K, 29938 kPa | 677.9
323.15 K, 35006 kPa | 682.2
323.15 K, 39965 kPa | 686.1
323.15 K, 45012 kPa | 690
323.15 K, 49970 kPa | 693.6
323.15 K, 54953 kPa | 697.1
323.15 K, 59965 kPa | 700.4
323.15 K, 65022 kPa | 703.7
328.15 K, 98 kPa | 641
328.15 K, 5010 kPa | 647.8
328.15 K, 9934 kPa | 653.9
328.15 K, 14950 kPa | 659.6
328.15 K, 19968 kPa | 664.9
328.15 K, 25011 kPa | 669.8
328.15 K, 30040 kPa | 674.5
328.15 K, 34952 kPa | 678.7
328.15 K, 39959 kPa | 682.8
328.15 K, 45017 kPa | 686.8
328.15 K, 49935 kPa | 690.4
328.15 K, 54941 kPa | 694
328.15 K, 59962 kPa | 697.4
328.15 K, 65006 kPa | 700.8
333.15 K, 92 kPa | 636.3
333.15 K, 4968 kPa | 643.3
333.15 K, 9977 kPa | 649.8
333.15 K, 15014 kPa | 655.7
333.15 K, 19986 kPa | 661.1
333.15 K, 25001 kPa | 666.2
333.15 K, 29959 kPa | 670.9
333.15 K, 34922 kPa | 675.3
333.15 K, 39972 kPa | 679.5
333.15 K, 45064 kPa | 683.6
333.15 K, 50006 kPa | 687.3
333.15 K, 54975 kPa | 691
333.15 K, 59984 kPa | 694.5
333.15 K, 64995 kPa | 697.8
338.15 K, 107 kPa | 631.7
338.15 K, 5007 kPa | 639.1
338.15 K, 9978 kPa | 645.7
338.15 K, 14968 kPa | 651.8
338.15 K, 19968 kPa | 657.4
338.15 K, 25042 kPa | 662.7
338.15 K, 30018 kPa | 667.5
338.15 K, 35052 kPa | 672.1
338.15 K, 39990 kPa | 676.3
338.15 K, 45087 kPa | 680.5
338.15 K, 49968 kPa | 684.3
338.15 K, 55044 kPa | 688.1
338.15 K, 60031 kPa | 691.6
338.15 K, 64997 kPa | 695
343.15 K, 98 kPa | 626.8
343.15 K, 4944 kPa | 634.4
343.15 K, 10008 kPa | 641.5
343.15 K, 14958 kPa | 647.7
343.15 K, 19959 kPa | 653.5
343.15 K, 25045 kPa | 658.9
343.15 K, 30012 kPa | 663.9
343.15 K, 34980 kPa | 668.5
343.15 K, 40024 kPa | 672.9
343.15 K, 44956 kPa | 677.1
343.15 K, 50037 kPa | 681.1
343.15 K, 55010 kPa | 684.9
343.15 K, 59979 kPa | 688.5
343.15 K, 65088 kPa | 692.1
348.15 K, 103 kPa | 622
348.15 K, 4998 kPa | 630
348.15 K, 9948 kPa | 637.2
348.15 K, 15016 kPa | 643.8
348.15 K, 19991 kPa | 649.7
348.15 K, 25051 kPa | 655.3
348.15 K, 29994 kPa | 660.3
348.15 K, 34970 kPa | 665.1
348.15 K, 39979 kPa | 669.6
348.15 K, 45063 kPa | 673.9
348.15 K, 50024 kPa | 678
348.15 K, 54974 kPa | 681.8
348.15 K, 59994 kPa | 685.5
353.15 K, 1014 kPa | 618.8
353.15 K, 5010 kPa | 625.6
353.15 K, 9950 kPa | 633
353.15 K, 15037 kPa | 639.9
353.15 K, 19996 kPa | 646
353.15 K, 25024 kPa | 651.7
353.15 K, 29983 kPa | 656.9
353.15 K, 34950 kPa | 661.8
353.15 K, 40060 kPa | 666.5
353.15 K, 45017 kPa | 670.8
353.15 K, 49987 kPa | 674.9
353.15 K, 54976 kPa | 678.9
353.15 K, 59989 kPa | 682.7
358.15 K, 5026 kPa | 621
358.15 K, 9954 kPa | 628.7
358.15 K, 15017 kPa | 635.8
358.15 K, 19926 kPa | 642
358.15 K, 25014 kPa | 647.9
358.15 K, 30045 kPa | 653.4
358.15 K, 35004 kPa | 658.3
358.15 K, 40013 kPa | 663.1
358.15 K, 44988 kPa | 667.5
358.15 K, 49996 kPa | 671.7
358.15 K, 55037 kPa | 675.8
358.15 K, 60020 kPa | 679.6
358.15 K, 65016 kPa | 683.3
363.15 K, 4947 kPa | 616.2
363.15 K, 10031 kPa | 624.5
363.15 K, 15019 kPa | 631.7
363.15 K, 19970 kPa | 638.2
363.15 K, 25122 kPa | 644.3
363.15 K, 30059 kPa | 649.8
363.15 K, 35064 kPa | 654.9
363.15 K, 40055 kPa | 659.8
363.15 K, 45078 kPa | 664.3
363.15 K, 49933 kPa | 668.5
363.15 K, 54989 kPa | 672.7
363.15 K, 59992 kPa | 676.6
363.15 K, 65058 kPa | 680.3
